Measurements: patent US20260262643A1, “HERBICIDAL BENZOXAZINES” (FMC CORPORATION, priority 2022, published 2026)

Legend:
barnyardgrass [1] = test: Test C preemergence; format: in vivo, Echinochloa crusgalli
Procedure, shortened: (§1)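 Visual injury ratings on a 0–100 scale (100 = complete control) were made against untreated controls 10 days after treatment in the greenhouse. Compounds, formulated with surfactant in non-phytotoxic solvent, were sprayed on soil preemergence or onto one- to two-leaf plants 2–10 cm tall postemergence.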

blackgrass [2] = test: Test C preemergence; format: in vivo, Alopecurus myosuroides
Procedure, shortened: as §1

corn [3] = test: Test C preemergence; format: in vivo, Zea mays; settings: 500 g ai/ha, preemergence; 0 to 100 scale (0 no effect, 100 complete control)
Procedure, shortened: as §1

green foxtail [4] = test: Test C preemergence; format: in vivo, Setaria viridis
Procedure, shortened: as §1

kochia [5] = test: Test C preemergence; format: in vivo, Bassia scoparia
Procedure, shortened: as §1

oat, wild [6] = test: Test C preemergence; format: in vivo, Avena fatua
Procedure, shortened: as §1

pigweed, palmer [7] = test: Test C preemergence; format: in vivo, Amaranthus palmeri
Procedure, shortened: as §1

ragweed [8] = test: Test C preemergence; format: in vivo, Ambrosia artemisiifolia
Procedure, shortened: as §1

ryegrass, Italian [9] = test: Test C preemergence; format: in vivo, Lolium multiflorum
Procedure, shortened: as §1

soybean [10] = test: Test C preemergence; format: in vivo, Glycine max
Procedure, shortened: as §1

wheat [11] = test: Test C preemergence; format: in vivo, Triticum aestivum
Procedure, shortened: as §1

barnyardgrass [12] = test: Test C postemergence; format: in vivo, Echinochloa crusgalli; settings: 10 days, 0 to 100 scale (0 no effect, 100 complete control)
Procedure, shortened: as §1

blackgrass [13] = test: Test C postemergence; format: in vivo, Alopecurus myosuroides; settings: 10 days, 0 to 100 scale (0 no effect, 100 complete control)
Procedure, shortened: as §1

corn [14] = test: Test C postemergence; format: in vivo, Zea mays; settings: 10 days, 0 to 100 scale (0 no effect, 100 complete control)
Procedure, shortened: as §1

green foxtail [15] = test: Test C postemergence; format: in vivo, Setaria viridis; settings: 10 days, 0 to 100 scale (0 no effect, 100 complete control)
Procedure, shortened: as §1

kochia [16] = test: Test C postemergence; format: in vivo, Bassia scoparia; settings: 10 days, 0 to 100 scale (0 no effect, 100 complete control)
Procedure, shortened: as §1

oat, wild [17] = test: Test C postemergence; format: in vivo, Avena fatua; settings: 10 days, 0 to 100 scale (0 no effect, 100 complete control)
Procedure, shortened: as §1

pigweed, palmer [18] = test: Test C postemergence; format: in vivo, Amaranthus palmeri; settings: 10 days, 0 to 100 scale (0 no effect, 100 complete control)
Procedure, shortened: as §1

ragweed [19] = test: Test C postemergence; format: in vivo, Ambrosia artemisiifolia; settings: 10 days, 0 to 100 scale (0 no effect, 100 complete control)
Procedure, shortened: as §1

ryegrass, Italian [20] = test: Test C postemergence; format: in vivo, Lolium multiflorum; settings: 10 days, 0 to 100 scale (0 no effect, 100 complete control)
Procedure, shortened: as §1

soybean [21] = test: Test C postemergence; format: in vivo, Glycine max; settings: 10 days, 0 to 100 scale (0 no effect, 100 complete control)
Procedure, shortened: as §1

wheat [22] = test: Test C postemergence; format: in vivo, Triticum aestivum; settings: 10 days, 0 to 100 scale (0 no effect, 100 complete control)
Procedure, shortened: as §1

galium = test: Test C postemergence; format: in vivo, Galium aparine; settings: 10 days, 0 to 100 scale (0 no effect, 100 complete control)
Procedure, shortened: as §1

horseweed = test: Test C postemergence; format: in vivo, Erigeron canadensis; settings: 10 days, 0 to 100 scale (0 no effect, 100 complete control)
Procedure, shortened: as §1

barnyardgrass [23] = test: Test D flooded paddy test; format: in vivo, Echinochloa crus-galli; settings: 250 g ai/ha, applied to paddy water, visual rating after 13 to 14 days, scale 0 to 100 (0 no effect, 100 complete control)
Procedure, shortened: (§2)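 Visual ratings from 0, meaning no effect, to 100, meaning complete control, were assigned against untreated controls 13 to 14 days after compounds were added to the floodwater of pots kept 3 cm deep, with plants at the 2-leaf stage.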

ducksalad = test: Test D flooded paddy test; format: in vivo, Heteranthera limosa; settings: 250 g ai/ha, applied to paddy water, visual rating after 13 to 14 days, scale 0 to 100 (0 no effect, 100 complete control)
Procedure, shortened: as §2

rice = test: Test D flooded paddy test; format: in vivo, Oryza sativa; settings: 250 g ai/ha, applied to paddy water, visual rating after 13 to 14 days, scale 0 to 100 (0 no effect, 100 complete control)
Procedure, shortened: as §2

sedge, umbrella = test: Test D flooded paddy test; format: in vivo, Cyperus difformis; settings: 250 g ai/ha, applied to paddy water, visual rating after 13 to 14 days, scale 0 to 100 (0 no effect, 100 complete control)
Procedure, shortened: as §2

[24] = 500 g ai/ha, preemergence, 0 to 100 scale (0 no effect, 100 complete control)
[25] = Preemergence, 125 g ai/ha, 0 to 100 scale, 0 no effect, 100 complete control

Question: For Cc1ncn(-c2ccc(F)c(C(=S)N3C[C@H](C)Oc4c(C)cccc43)c2)n1 [Compound 362], which “Barnyardgrass plant response rating” value (barnyardgrass [1]; [24]) is on record?
Answer: 100

Question: And the “Plant response rating, Barnyardgrass” value (barnyardgrass [1]; [25])?
Answer: 80

Question: What about the “Blackgrass plant response rating” value (blackgrass [2]; [24]) of the same molecule?
Answer: 80

Question: And the “Plant response rating, Blackgrass” value (blackgrass [2]; [25])?
Answer: 50

Question: And the “Corn plant response rating” value (corn [3])?
Answer: 20

Question: What about the “Foxtail, Green plant response rating” value (green foxtail [4]; [24]) of the same molecule?
Answer: 100

Question: And the “Plant response rating, Foxtail, Green” value (green foxtail [4]; [25])?
Answer: 100

Question: What about the “Kochia plant response rating” value (kochia [5]; [24]) of the same molecule?
Answer: 80

Question: And the “Plant response rating, Kochia” value (kochia [5]; [25])?
Answer: 70

Question: And the “Oat, Wild plant response rating” value (oat, wild [6]; [24])?
Answer: 70

Question: What about the “Plant response rating, Oat, Wild” value (oat, wild [6]; [25]) of the same molecule?
Answer: 0

Question: And the “Pigweed, Palmer plant response rating” value (pigweed, palmer [7]; [24])?
Answer: 100

Question: And the “Plant response rating, Pigweed, Palmer” value (pigweed, palmer [7]; [25])?
Answer: 90

Question: What about the “Ragweed plant response rating” value (ragweed [8]; [24]) of the same molecule?
Answer: 60

Question: And the “Plant response rating, Ragweed” value (ragweed [8]; [25])?
Answer: 20

Question: And the “Ryegrass, Italian plant response rating” value (ryegrass, Italian [9]; [24])?
Answer: 90

Question: And the “Plant response rating, Ryegrass, Italian” value (ryegrass, Italian [9]; [25])?
Answer: 80

Question: And the “Soybean plant response rating” value (soybean [10]; [24])?
Answer: 70

Question: And the “Plant response rating, Soybean” value (soybean [10]; [25])?
Answer: 50

Question: What about the “Wheat plant response rating” value (wheat [11]; [24]) of the same molecule?
Answer: 40

Question: What about the “Plant response rating, Wheat” value (wheat [11]; [25]) of the same molecule?
Answer: 10

Question: What about the “Plant response rating, Barnyardgrass” value (barnyardgrass [12]; 500 g ai/ha, postemergence) of the same molecule?
Answer: 90

Question: And the “Plant response rating, Barnyardgrass” value (barnyardgrass [12]; Postemergence, 125 g ai/ha)?
Answer: 60

Question: And the “Plant response rating, Blackgrass” value (blackgrass [13]; 500 g ai/ha, postemergence)?
Answer: 90

Question: What about the “Plant response rating, Blackgrass” value (blackgrass [13]; Postemergence, 125 g ai/ha) of the same molecule?
Answer: 70

Question: And the “Plant response rating, Corn” value (corn [14]; 500 g ai/ha, postemergence)?
Answer: 40

Question: And the “Plant response rating, Corn” value (corn [14]; Postemergence, 125 g ai/ha)?
Answer: 30

Question: And the “Plant response rating, Foxtail, Green” value (green foxtail [15]; 500 g ai/ha, postemergence)?
Answer: 90

Question: And the “Plant response rating, Foxtail, Green” value (green foxtail [15]; Postemergence, 125 g ai/ha)?
Answer: 70

Question: And the “Plant response rating, Kochia” value (kochia [16]; 500 g ai/ha, postemergence)?
Answer: 90

Question: What about the “Plant response rating, Kochia” value (kochia [16]; Postemergence, 125 g ai/ha) of the same molecule?
Answer: 80

Question: What about the “Plant response rating, Oat, Wild” value (oat, wild [17]; 500 g ai/ha, postemergence) of the same molecule?
Answer: 60

Question: And the “Plant response rating, Oat, Wild” value (oat, wild [17]; Postemergence, 125 g ai/ha)?
Answer: 30

Question: And the “Plant response rating, Pigweed, Palmer” value (pigweed, palmer [18]; 500 g ai/ha, postemergence)?
Answer: 80

Question: And the “Plant response rating, Pigweed, Palmer” value (pigweed, palmer [18]; Postemergence, 125 g ai/ha)?
Answer: 30

Question: And the “Plant response rating, Ragweed” value (ragweed [19]; 500 g ai/ha, postemergence)?
Answer: 60

Question: And the “Plant response rating, Ragweed” value (ragweed [19]; Postemergence, 125 g ai/ha)?
Answer: 50

Question: What about the “Plant response rating, Ryegrass, Italian” value (ryegrass, Italian [20]; 500 g ai/ha, postemergence) of the same molecule?
Answer: 90

Question: What about the “Plant response rating, Ryegrass, Italian” value (ryegrass, Italian [20]; Postemergence, 125 g ai/ha) of the same molecule?
Answer: 80

Question: What about the “Plant response rating, Soybean” value (soybean [21]; 500 g ai/ha, postemergence) of the same molecule?
Answer: 100

Question: And the “Plant response rating, Soybean” value (soybean [21]; Postemergence, 125 g ai/ha)?
Answer: 100

Question: And the “Plant response rating, Wheat” value (wheat [22]; 500 g ai/ha, postemergence)?
Answer: 60

Question: And the “Plant response rating, Wheat” value (wheat [22]; Postemergence, 125 g ai/ha)?
Answer: 40

Question: What about the “Plant response rating, Galium” value (galium; 500 g ai/ha, postemergence) of the same molecule?
Answer: 100

Question: What about the “Plant response rating, Galium” value (galium; Postemergence, 125 g ai/ha) of the same molecule?
Answer: 100

Question: What about the “Plant response rating, Horseweed” value (horseweed; 500 g ai/ha, postemergence) of the same molecule?
Answer: 10

Question: What about the “Plant response rating, Horseweed” value (horseweed; Postemergence, 125 g ai/ha) of the same molecule?
Answer: 0

Question: And the “Plant response rating, Barnyardgrass (Flood)” value (barnyardgrass [23])?
Answer: 35

Question: And the “Plant response rating, Ducksalad (Flood)” value (ducksalad)?
Answer: 50

Question: What about the “Plant response rating, Rice (Flood)” value (rice) of the same molecule?
Answer: 25

Question: What about the “Plant response rating, Sedge, Umbrella (Flood)” value (sedge, umbrella) of the same molecule?
Answer: 95
